These results are taken from patent US8501693B2, “Use of exendins and exendin agonists and GLP-1 receptor agonists for altering the concentration of fibrinogen” (Amylin Pharmaceuticals, LLC, priority 2006, dated 2013).

The subject of one assay is Fibrinogen. As to the kind of experiment: Fibrinogen concentration by the von Clauss clotting method in the 1-year open-label exenatide vs biphasic insulin aspart trial. In kind it is in vivo, human. Particulars: patients with type 2 diabetes. The protocol:
For test meal data, postprandial glucose incremental AUC0-4h is calculated at baseline and week 52.
Fibrinogen activity is measured by the von Clauss clotting method. By the von Clauss clotting method, thrombin is added to a test sample and the time until clotting is measured. Fibrinogen concentration is determined by comparing clotting time for the test sample to the clotting time of a standard curve for various reference plasmas.
Fibrinogen is measured at baseline, Week 16, Week 52, or at early termination of the study.

Assay [1] has as its system lipoprotein subclass particles (LDL, HDL, VLDL). The experiment in a line: Lipoprotein subclass particle concentration and particle size by proton NMR in the 1-year open-label exenatide vs biphasic insulin aspart trial. Particulars: change from baseline to endpoint. The format is in vivo, human. The method, then:
Lipoprotein subclass particle concentrations and average particle diameters are measured using proton nuclear magnetic resonance spectroscopy.
The particle concentrations of different lipoprotein subclasses are obtained by measuring the amplitudes of the characteristic lipid methyl NMR signals. The signal amplitudes of various subclasses are extracted from the overall lipid methyl group signal with a spectral deconvolution algorithm (LipoScience, Inc.). See e.g., Festa. VLDL and LDL particle concentrations are given in nanomoles per liter. HDL particle concentrations are provided in micromoles per liter.
Average particle sizes (in nanometers diameter) are computed as the sum of the diameter of the particle subclass multiplied by the relative mass percentage of the subclass as estimated from the amplitude of its methyl NMR signal.
Particle concentrations and sizes are compared before and after administration of an exendin or exendin agonist. See e.g., Table 1.

The mark [2] stands for this setting: patients with type 2 diabetes, fasting.
[3] abbreviates: particle concentration, patients with type 2 diabetes.

For the substance biphasic insulin aspart 30/70, the “Fibrinogen level, Mean, Baseline” value in the assay with Fibrinogen (Baseline (before treatment) of the treatment group) amounted to 4.22 g/L. Also, in the assay with Fibrinogen (Endpoint, last post-baseline measurement carried forward (Week 16, Week 52 or early termination)), the “Fibrinogen level, Mean, Endpoint (LOCF)” value stood at 4.16 g/L. Besides, in assay [1] (patients with type 2 diabetes inadequately controlled by sulphonylurea and metformin, fasting), the “LDL Particle Size Δ mean (SEM)” value was “+0.11 (0.12) p = .356 nm”. In assay [1] (setting [2]), the “HDL Particle Size Δ mean (SEM)” value was “+0.04 (0.05) p = .391 nm” and the “VLDL Particle Size Δ mean (SEM)” value is on record as −1.6 (2.2) p = .482 nm. In assay [1] (setting [3]), the “Large HDL Δ mean (SEM)” value is “+1.0 (0.4) p = .014 μmol/L”, the “Large LDL Δ mean (SEM)” value was “+37.7 (32.8) p = .258 nmol/L”, the “Small LDL Δ mean (SEM)” value is given as −25.8 (81.2) p = .753 nmol/L and the “Small VLDL Δ mean (SEM)” value was “+8.5 (4.2) p = .049 nmol/L”. Also, in assay [1] (setting [3]), the “Total HDL Δ mean (SEM)” value is recorded as “+2.5 (0.9) p = .012 μmol/L”, the “Total LDL Δ mean (SEM)” value is “+5.0 (75) p = .947 nmol/L”, the “Total VLDL Δ mean (SEM)” value is “+12.9 (6.6) p = .056 nmol/L” and the “Very Small LDL Δ mean (SEM)” value is reported as −17.0 (64.6) p = .794 nmol/L.
